# Assay results from publication PMC6421522, “Designing Dual Inhibitors of Anaplastic Lymphoma Kinase (ALK) and Bromodomain-4 (BRD4) by Tuning Kinase Selectivity” (Journal of Medicinal Chemistry, 2019).
# Legend:
# Format in all cases: binding
# [1] = biological target: ALK WT (Homo sapiens, UniProt Q9UM73); assay: Biochemical ALK WT IC50; conditions: geometric mean
# [2] = biological target: T1, AURKA (Homo sapiens, UniProt O14965); assay: KINOMEscan scanEDGE; conditions: read-out: % Control (1µM)
# T1 construct: purchased DiscoveRx KINOMEscan (scanEDGE); Thermo Fisher SelectScreen (Z'-LYTE) for PLK-1
# T1 sequence (O14965 whole entry): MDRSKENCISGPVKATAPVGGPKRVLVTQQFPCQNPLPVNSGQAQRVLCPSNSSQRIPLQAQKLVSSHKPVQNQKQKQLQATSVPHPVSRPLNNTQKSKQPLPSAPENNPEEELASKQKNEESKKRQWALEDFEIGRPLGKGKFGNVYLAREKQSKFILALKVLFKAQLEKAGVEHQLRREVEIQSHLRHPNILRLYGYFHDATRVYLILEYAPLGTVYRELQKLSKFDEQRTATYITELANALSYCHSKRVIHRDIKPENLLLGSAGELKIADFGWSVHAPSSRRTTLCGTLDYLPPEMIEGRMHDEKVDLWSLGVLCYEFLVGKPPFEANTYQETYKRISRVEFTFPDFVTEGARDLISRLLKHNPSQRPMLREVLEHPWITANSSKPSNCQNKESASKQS
# Experimental: (§1) Compound X was assayed at 1 μM in the DiscoveRx KINOMEscan (scanEDGE) assay platform. The results for single-concentration binding interactions are reported as “%Ctrl” (DMSO = 100%Ctrl), where lower numbers indicate stronger hits.
# [3] = biological target: T2, AKT2 (Homo sapiens, UniProt P31751); assay: KINOMEscan scanEDGE; conditions: read-out: % Control (1µM)
# T2 construct: purchased DiscoveRx KINOMEscan (scanEDGE); Thermo Fisher SelectScreen (Z'-LYTE) for PLK-1
# Experimental: as §1
# [4] = biological target: T3, PAK2 (Homo sapiens, UniProt Q13177); assay: KINOMEscan scanEDGE; conditions: read-out: % Control (1µM)
# T3 construct: purchased DiscoveRx KINOMEscan (scanEDGE); Thermo Fisher SelectScreen (Z'-LYTE) for PLK-1
# T3 sequence (Q13177 whole entry): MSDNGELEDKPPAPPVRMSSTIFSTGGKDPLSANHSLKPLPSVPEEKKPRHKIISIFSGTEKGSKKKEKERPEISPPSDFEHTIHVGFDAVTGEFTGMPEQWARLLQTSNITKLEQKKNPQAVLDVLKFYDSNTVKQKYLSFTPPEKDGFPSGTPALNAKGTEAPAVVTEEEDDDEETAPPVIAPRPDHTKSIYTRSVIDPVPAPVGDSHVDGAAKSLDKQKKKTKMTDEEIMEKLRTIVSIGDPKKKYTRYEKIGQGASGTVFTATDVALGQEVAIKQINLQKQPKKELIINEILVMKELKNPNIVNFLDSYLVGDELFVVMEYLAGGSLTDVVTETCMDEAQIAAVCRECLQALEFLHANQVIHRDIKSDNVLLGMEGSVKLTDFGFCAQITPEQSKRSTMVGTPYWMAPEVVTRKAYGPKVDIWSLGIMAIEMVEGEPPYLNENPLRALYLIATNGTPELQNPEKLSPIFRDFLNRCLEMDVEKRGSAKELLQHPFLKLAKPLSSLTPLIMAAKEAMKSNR
# Experimental: as §1
# [5] = biological target: T4, PLK4 (Homo sapiens, UniProt O00444); assay: KINOMEscan scanEDGE; conditions: read-out: % Control (1µM)
# T4 construct: purchased DiscoveRx KINOMEscan (scanEDGE); Thermo Fisher SelectScreen (Z'-LYTE) for PLK-1
# Experimental: as §1
# [6] = biological target: T5, CHEK1 (Homo sapiens, UniProt O14757); assay: KINOMEscan scanEDGE; conditions: read-out: % Control (1µM)
# T5 construct: purchased DiscoveRx KINOMEscan (scanEDGE); Thermo Fisher SelectScreen (Z'-LYTE) for PLK-1
# T5 sequence (O14757 whole entry): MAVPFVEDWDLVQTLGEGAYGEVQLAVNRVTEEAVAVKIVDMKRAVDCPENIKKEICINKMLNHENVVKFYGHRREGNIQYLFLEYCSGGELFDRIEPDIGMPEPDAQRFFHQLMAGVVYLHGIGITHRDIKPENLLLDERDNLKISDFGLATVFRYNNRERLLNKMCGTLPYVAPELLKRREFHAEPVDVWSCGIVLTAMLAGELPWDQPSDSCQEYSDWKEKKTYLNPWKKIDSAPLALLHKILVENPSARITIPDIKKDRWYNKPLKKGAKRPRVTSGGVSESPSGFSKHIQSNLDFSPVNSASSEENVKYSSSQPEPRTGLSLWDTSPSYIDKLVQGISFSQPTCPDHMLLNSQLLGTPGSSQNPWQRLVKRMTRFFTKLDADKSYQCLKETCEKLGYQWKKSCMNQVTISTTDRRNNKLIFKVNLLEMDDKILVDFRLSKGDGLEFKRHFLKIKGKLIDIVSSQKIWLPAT
# Experimental: as §1
# [7] = biological target: T6, PIK3CG (Homo sapiens, UniProt P48736); assay: KINOMEscan scanEDGE; conditions: read-out: % Control (1µM)
# T6 construct: purchased DiscoveRx KINOMEscan (scanEDGE); Thermo Fisher SelectScreen (Z'-LYTE) for PLK-1
# Experimental: as §1
# [8] = biological target: T7, VEGFR2 (Homo sapiens, UniProt P35968); assay: KINOMEscan scanEDGE; conditions: read-out: % Control (1µM)
# T7 construct: purchased DiscoveRx (DiscoverX)
# Experimental: as §1
# [9] = biological target: T8, LKB1 (Homo sapiens, UniProt Q15831); assay: KINOMEscan scanEDGE; conditions: read-out: % Control (1µM)
# T8 construct: purchased DiscoveRx KINOMEscan (scanEDGE); Thermo Fisher SelectScreen (Z'-LYTE) for PLK-1
# T8 sequence (Q15831 whole entry): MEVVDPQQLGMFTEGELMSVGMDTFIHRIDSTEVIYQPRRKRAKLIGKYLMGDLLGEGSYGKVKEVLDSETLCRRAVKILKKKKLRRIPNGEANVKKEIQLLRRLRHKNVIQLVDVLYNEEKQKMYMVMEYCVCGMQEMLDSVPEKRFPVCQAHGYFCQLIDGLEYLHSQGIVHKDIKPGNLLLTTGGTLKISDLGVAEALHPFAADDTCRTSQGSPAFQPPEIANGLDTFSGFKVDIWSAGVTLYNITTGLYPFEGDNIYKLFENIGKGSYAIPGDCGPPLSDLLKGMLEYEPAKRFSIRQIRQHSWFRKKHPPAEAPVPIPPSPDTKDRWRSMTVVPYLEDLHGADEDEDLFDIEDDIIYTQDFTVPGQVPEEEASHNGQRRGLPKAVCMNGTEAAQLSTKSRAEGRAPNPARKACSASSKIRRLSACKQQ
# Experimental: as §1
# [10] = biological target: T9, MAPKAPK2 (Homo sapiens, UniProt P49137); assay: KINOMEscan scanEDGE; conditions: read-out: % Control (1µM)
# T9 construct: purchased DiscoveRx KINOMEscan (scanEDGE); Thermo Fisher SelectScreen (Z'-LYTE) for PLK-1
# T9 sequence (P49137 whole entry): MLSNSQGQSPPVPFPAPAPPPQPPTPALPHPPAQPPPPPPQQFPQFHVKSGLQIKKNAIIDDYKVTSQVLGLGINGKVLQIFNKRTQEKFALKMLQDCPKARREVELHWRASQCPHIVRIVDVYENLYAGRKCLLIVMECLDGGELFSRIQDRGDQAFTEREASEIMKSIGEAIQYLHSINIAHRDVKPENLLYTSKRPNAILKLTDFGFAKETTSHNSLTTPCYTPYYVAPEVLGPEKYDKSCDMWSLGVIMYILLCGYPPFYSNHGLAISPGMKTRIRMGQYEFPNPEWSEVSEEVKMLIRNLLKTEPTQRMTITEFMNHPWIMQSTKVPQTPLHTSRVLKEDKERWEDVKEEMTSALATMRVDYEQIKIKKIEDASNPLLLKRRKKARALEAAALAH
# Experimental: as §1
# [11] = biological target: T10, PAK1 (Homo sapiens, UniProt Q13153); assay: KINOMEscan scanEDGE; conditions: read-out: % Control (1µM)
# T10 construct: purchased DiscoveRx KINOMEscan (scanEDGE); Thermo Fisher SelectScreen (Z'-LYTE) for PLK-1
# T10 sequence (Q13153 whole entry): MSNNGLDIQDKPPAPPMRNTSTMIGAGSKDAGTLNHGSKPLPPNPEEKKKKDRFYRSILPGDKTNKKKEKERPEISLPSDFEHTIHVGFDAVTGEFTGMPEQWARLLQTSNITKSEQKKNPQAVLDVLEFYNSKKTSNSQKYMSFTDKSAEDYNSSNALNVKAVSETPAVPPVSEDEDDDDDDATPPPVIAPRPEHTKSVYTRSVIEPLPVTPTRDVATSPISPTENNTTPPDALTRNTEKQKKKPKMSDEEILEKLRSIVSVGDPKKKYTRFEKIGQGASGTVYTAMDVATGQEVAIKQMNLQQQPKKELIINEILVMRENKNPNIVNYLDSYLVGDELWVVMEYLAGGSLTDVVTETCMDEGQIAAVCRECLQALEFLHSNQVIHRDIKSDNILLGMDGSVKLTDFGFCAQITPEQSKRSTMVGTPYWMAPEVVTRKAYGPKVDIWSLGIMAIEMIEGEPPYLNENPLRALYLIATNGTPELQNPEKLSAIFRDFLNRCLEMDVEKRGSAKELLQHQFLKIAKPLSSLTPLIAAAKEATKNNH
# Experimental: as §1
# [12] = biological target: T11, JAK2(JH1domain-catalytic) (Homo sapiens, UniProt O60674); assay: KINOMEscan scanEDGE; conditions: read-out: % Control (1µM)
# T11 construct: JAK2(JH1domain-catalytic); purchased DiscoveRx KINOMEscan (scanEDGE); Thermo Fisher SelectScreen (Z'-LYTE) for PLK-1
# Experimental: as §1
# [13] = biological target: T12, AURKB (Homo sapiens, UniProt Q96GD4); assay: KINOMEscan scanEDGE; conditions: read-out: % Control (1µM)
# T12 construct: purchased DiscoveRx KINOMEscan (scanEDGE); Thermo Fisher SelectScreen (Z'-LYTE) for PLK-1
# Experimental: as §1
# [14] = biological target: T13, ADCK3 (Homo sapiens, UniProt Q8NI60); assay: KINOMEscan scanEDGE; conditions: read-out: % Control (1µM)
# T13 construct: purchased DiscoveRx KINOMEscan (scanEDGE); Thermo Fisher SelectScreen (Z'-LYTE) for PLK-1
# Experimental: as §1
# [15] = biological target: T14, FGFR2 (Homo sapiens, UniProt P21802); assay: KINOMEscan scanEDGE; conditions: read-out: % Control (1µM)
# T14 construct: purchased DiscoveRx KINOMEscan (scanEDGE); Thermo Fisher SelectScreen (Z'-LYTE) for PLK-1
# T14 sequence (P21802 22-821): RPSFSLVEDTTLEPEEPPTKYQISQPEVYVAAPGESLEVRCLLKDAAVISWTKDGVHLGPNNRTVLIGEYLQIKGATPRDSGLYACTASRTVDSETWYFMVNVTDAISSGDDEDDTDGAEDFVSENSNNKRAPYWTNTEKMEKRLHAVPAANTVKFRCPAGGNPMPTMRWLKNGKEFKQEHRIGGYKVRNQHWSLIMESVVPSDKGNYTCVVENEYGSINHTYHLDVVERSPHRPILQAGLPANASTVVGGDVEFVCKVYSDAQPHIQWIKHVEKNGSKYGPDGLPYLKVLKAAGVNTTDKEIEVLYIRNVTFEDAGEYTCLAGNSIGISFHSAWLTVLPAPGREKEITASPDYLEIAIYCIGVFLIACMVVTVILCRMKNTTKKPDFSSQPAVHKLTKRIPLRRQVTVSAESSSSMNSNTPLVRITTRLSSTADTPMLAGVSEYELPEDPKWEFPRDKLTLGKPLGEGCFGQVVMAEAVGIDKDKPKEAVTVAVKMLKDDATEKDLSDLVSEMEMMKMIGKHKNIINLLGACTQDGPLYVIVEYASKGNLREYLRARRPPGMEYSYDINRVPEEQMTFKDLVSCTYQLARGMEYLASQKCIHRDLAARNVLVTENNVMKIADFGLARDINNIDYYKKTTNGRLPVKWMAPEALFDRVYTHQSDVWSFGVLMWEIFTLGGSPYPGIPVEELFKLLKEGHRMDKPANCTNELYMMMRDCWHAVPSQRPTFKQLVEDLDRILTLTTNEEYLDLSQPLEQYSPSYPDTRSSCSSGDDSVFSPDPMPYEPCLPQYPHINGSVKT
# Experimental: as §1
# [16] = biological target: T15, SNARK (Homo sapiens, UniProt Q9H093); assay: KINOMEscan scanEDGE; conditions: read-out: % Control (1µM)
# T15 construct: purchased DiscoveRx KINOMEscan (scanEDGE); Thermo Fisher SelectScreen (Z'-LYTE) for PLK-1
# T15 sequence (Q9H093 whole entry): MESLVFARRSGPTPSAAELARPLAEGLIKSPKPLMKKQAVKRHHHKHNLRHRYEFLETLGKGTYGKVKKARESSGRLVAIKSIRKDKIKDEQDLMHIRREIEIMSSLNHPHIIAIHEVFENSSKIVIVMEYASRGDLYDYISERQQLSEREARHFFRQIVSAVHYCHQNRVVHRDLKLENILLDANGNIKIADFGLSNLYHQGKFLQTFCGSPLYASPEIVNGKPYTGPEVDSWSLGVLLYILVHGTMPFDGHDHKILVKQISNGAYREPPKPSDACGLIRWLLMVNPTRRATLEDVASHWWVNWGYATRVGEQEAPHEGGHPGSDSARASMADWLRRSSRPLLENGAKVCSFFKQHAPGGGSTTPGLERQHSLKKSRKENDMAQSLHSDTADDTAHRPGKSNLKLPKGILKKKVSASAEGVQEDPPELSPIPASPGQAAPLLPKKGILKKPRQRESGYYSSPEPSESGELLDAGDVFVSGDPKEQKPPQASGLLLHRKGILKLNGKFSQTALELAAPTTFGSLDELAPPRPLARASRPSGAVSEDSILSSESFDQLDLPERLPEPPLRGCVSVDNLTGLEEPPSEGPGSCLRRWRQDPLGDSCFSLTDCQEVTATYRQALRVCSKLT
# Experimental: as §1
# [17] = biological target: T16, BMPR2 (Homo sapiens, UniProt Q13873); assay: KINOMEscan scanEDGE; conditions: read-out: % Control (1µM)
# T16 construct: purchased DiscoveRx KINOMEscan (scanEDGE); Thermo Fisher SelectScreen (Z'-LYTE) for PLK-1
# Experimental: as §1
# [18] = biological target: T17, TYK2(JH1domain-catalytic) (Homo sapiens, UniProt P29597); assay: KINOMEscan scanEDGE; conditions: read-out: % Control (1µM)
# T17 construct: TYK2(JH1domain-catalytic); purchased DiscoveRx KINOMEscan (scanEDGE); Thermo Fisher SelectScreen (Z'-LYTE) for PLK-1
# Experimental: as §1
# [19] = biological target: T18, FGFR3 (Homo sapiens, UniProt P22607); assay: KINOMEscan scanEDGE; conditions: read-out: % Control (1µM)
# T18 construct: purchased DiscoveRx KINOMEscan (scanEDGE); Thermo Fisher SelectScreen (Z'-LYTE) for PLK-1
# T18 sequence (P22607 23-806): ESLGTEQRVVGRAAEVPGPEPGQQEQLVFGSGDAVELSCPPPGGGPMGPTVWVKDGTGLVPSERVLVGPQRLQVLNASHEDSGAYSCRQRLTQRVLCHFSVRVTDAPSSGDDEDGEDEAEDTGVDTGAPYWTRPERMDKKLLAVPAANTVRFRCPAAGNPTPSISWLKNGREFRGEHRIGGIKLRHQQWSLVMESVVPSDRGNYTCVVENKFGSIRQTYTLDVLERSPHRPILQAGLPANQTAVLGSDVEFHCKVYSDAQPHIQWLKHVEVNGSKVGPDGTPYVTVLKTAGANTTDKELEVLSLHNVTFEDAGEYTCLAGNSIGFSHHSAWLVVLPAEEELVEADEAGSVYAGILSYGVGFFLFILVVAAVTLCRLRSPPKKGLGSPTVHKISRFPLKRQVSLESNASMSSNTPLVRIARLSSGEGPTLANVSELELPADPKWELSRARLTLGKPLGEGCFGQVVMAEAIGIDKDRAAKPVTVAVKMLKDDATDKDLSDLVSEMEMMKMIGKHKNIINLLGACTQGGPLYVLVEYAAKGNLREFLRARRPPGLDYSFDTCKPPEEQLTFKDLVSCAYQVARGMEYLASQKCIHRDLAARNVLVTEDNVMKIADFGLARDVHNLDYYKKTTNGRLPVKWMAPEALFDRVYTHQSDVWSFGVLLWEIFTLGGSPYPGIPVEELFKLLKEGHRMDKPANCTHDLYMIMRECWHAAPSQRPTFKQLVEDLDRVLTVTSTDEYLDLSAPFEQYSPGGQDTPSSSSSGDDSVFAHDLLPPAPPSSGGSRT
# Experimental: as §1
# [20] = biological target: T19, KIT(V559D,T670I) (Homo sapiens, UniProt P10721, T670I/V559D); assay: KINOMEscan scanEDGE; conditions: read-out: % Control (1µM)
# T19 construct: purchased DiscoveRx KINOMEscan (scanEDGE); Thermo Fisher SelectScreen (Z'-LYTE) for PLK-1
# Experimental: as §1
# [21] = biological target: T20, RAF1 (Homo sapiens, UniProt P04049); assay: KINOMEscan scanEDGE; conditions: read-out: % Control (1µM)
# T20 construct: purchased DiscoveRx KINOMEscan (scanEDGE); Thermo Fisher SelectScreen (Z'-LYTE) for PLK-1
# Experimental: as §1
smiles,measurement,setting,value
"CCOc1cc(C2CCN(C)CC2)ccc1Nc1ncc2c(n1)N(Cc1cc(C)cs1)[C@H](CC)C(=O)N2C [16k, (R)-2-((2-Ethoxy-4-(1-methylpiperidin-4-yl)phenyl)amino)-7-ethyl-5-methyl-8-((4-methylthiophen-2-yl)methyl)-7,8-dihydropteridin-6(5H)-one]",IC50,[1],0.06 ± 0.012 µM
same,remaining binding at 1 µM,[2],99%
same,remaining binding at 1 µM,[3],100%
same,remaining binding at 1 µM,[4],100%
same,remaining binding at 1 µM,[5],100%
same,remaining binding at 1 µM,[6],100%
same,remaining binding at 1 µM,[7],98%
same,remaining binding at 1 µM,[8],87%
same,remaining binding at 1 µM,[9],82%
same,remaining binding at 1 µM,[10],100%
same,remaining binding at 1 µM,[11],100%
same,remaining binding at 1 µM,[12],83%
same,remaining binding at 1 µM,[13],86%
same,remaining binding at 1 µM,[14],100%
same,remaining binding at 1 µM,[15],100%
same,remaining binding at 1 µM,[16],100%
same,remaining binding at 1 µM,[17],100%
same,remaining binding at 1 µM,[18],100%
same,remaining binding at 1 µM,[19],98%
same,remaining binding at 1 µM,[20],100%
same,remaining binding at 1 µM,[21],100%
